Laboratory results taken from US20260337225A1, “SMALL PEPTIDE AND USE THEREOF IN MUCOSAL REPAIR” (FORREST BIO-PHARM (SHENZHEN) CO., LTD., priority 2022, published 2026).

Tested on: rat model of chronic gastric ulcer
Test: Rat model of chronic gastric ulcer (anhydrous ethanol followed by aspirin)
Format: in vivo
Conditions: omeprazole 2.6 mg/kg twice daily for 3 days
Procedure: The function of the small peptides obtained in Embodiment 2 was validated in the present embodiment by using a rat model of chronic gastric ulcer.
Control group (model group): A rat model of chronic gastric ulcer model was constructed by intragastric administration of anhydrous ethanol (1 mL/200 g), followed by intragastric administration of 200 mg/kg aspirin 2 h later. The rats were administered with aspirin once daily for 4 days. At day 5, the rats were administered with an equal volume of saline.
Blank group: The rats were administered with an equal volume of saline.
Drug treatment groups: A rat model of chronic gastric ulcer was constructed as above-mentioned. At day 5, the rats were respectively administered with the rice polypeptide mixture (50 mg/kg), small peptide P1 (0.5 mg/kg), or small peptide P2 (0.5 mg/kg) twice daily for 3 days. On day 4, the rats were sacrificed and their gastric necropsy was performed.
Positive control group (omeprazole 2.6 mg/kg): A rat model of chronic gastric ulcer was constructed as above. At day 5, the rats were administered with omeprazole (2.6 mg/kg) twice daily for 3 days. On day 4, The rats were sacrificed and their gastric necropsy was performed.
Each group consisted of 10 rats. After 24 h of modeling, the rats were sacrificed to extract the gastric tissue, for measuring gastric pH, and observing changes in ulcer area via gastric tissue dissection. Liver and kidney tissues were collected for pathological section observation to assess drug safety.

COc1ccc2[nH]c([S+]([O-])Cc3ncc(C)c(OC)c3C)nc2c1 (centres unmarked) [omeprazole, reference compound]
Ulcer index (10 rats, ratio of ulcer area to gastric mucosal tissue area, Control group 40.5 ± 5.3): 7.2 ± 4.1%
Ulcer inhibition rate (percentage reduction in ulcer area compared to the Control group): 82.2%
